Calls of active or inactive are those of the source.
Key:
[1] = molecular target: T1, Alkaline phosphatase, tissue-nonspecific isozyme (Homo sapiens, UniProt P05186); test: human TNAP enzyme inhibitors, SAR follow-up, biochemical, luminescent, dose response (AID 1056)
T1 sequence (P05186 whole entry): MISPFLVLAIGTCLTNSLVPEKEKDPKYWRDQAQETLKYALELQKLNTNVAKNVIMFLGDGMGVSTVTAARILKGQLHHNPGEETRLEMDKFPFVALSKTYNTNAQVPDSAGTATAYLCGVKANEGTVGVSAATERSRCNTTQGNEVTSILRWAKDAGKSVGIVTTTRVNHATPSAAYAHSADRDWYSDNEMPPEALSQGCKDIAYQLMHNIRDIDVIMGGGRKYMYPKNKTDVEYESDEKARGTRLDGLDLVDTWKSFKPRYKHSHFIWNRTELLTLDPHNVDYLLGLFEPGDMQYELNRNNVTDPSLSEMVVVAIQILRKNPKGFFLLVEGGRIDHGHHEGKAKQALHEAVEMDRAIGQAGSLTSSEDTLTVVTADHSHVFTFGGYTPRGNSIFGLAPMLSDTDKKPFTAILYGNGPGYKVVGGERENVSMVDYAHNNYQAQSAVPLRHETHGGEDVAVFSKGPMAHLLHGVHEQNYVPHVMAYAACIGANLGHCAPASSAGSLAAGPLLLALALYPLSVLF

[2] = molecular target: Glyceraldehyde-3-phosphate dehydrogenase (Homo sapiens, UniProt P04406)
Sequence of Glyceraldehyde-3-phosphate dehydrogenase (P04406 whole entry): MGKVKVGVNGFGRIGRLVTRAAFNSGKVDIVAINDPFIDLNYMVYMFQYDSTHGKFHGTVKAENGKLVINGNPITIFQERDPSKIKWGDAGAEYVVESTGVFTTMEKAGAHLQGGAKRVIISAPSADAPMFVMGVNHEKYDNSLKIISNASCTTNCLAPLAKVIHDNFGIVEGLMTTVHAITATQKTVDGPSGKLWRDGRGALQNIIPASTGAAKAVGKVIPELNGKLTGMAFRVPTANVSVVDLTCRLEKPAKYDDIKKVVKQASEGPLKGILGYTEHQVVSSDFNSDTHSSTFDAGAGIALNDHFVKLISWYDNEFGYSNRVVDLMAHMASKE

[3] = molecular target: Peroxisome proliferator-activated receptor gamma/Nuclear receptor coactivator 2 (Homo sapiens, UniProt P37231); test: (§1) TR-FRET dose response biochemical High Throughput Screening assay for agonists of the steroid receptor coactivator 2 (SRC-2) recruitment by the peroxisome proliferator-activated receptor gamma (PPAR gamma): non-selective agonists. [Related pubchem assays: 1297, 1032 ]; type: functional
[4] = molecular target: Peroxisome proliferator-activated receptor gamma/Nuclear receptor coactivator 1 (Homo sapiens, UniProt P37231); test: as §1, with “1 (SRC-1)” for “2 (SRC-2)”, “assays (depositor defined):AID1300, AID1808, AID504735, AID631]” for “assays: 1297, 1032 ]”; type: protein assay
Sequence of Peroxisome proliferator-activated receptor gamma/Nuclear receptor coactivator 1 (P37231 whole entry): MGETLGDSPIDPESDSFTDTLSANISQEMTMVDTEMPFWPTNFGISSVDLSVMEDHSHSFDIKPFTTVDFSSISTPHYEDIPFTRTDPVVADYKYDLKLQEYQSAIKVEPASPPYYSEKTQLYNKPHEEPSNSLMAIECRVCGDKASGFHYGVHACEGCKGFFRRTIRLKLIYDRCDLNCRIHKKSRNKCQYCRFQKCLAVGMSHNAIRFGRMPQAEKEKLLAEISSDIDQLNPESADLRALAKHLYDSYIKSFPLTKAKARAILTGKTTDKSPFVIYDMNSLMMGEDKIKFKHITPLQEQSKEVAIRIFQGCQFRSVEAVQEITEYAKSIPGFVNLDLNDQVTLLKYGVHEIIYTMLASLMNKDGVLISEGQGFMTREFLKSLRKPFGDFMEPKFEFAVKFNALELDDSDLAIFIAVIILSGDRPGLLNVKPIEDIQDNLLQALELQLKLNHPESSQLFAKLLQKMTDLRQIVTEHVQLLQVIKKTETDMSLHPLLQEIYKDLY
Sequence of Peroxisome proliferator-activated receptor gamma/Nuclear receptor coactivator 1 (Q15788 whole entry, further chain): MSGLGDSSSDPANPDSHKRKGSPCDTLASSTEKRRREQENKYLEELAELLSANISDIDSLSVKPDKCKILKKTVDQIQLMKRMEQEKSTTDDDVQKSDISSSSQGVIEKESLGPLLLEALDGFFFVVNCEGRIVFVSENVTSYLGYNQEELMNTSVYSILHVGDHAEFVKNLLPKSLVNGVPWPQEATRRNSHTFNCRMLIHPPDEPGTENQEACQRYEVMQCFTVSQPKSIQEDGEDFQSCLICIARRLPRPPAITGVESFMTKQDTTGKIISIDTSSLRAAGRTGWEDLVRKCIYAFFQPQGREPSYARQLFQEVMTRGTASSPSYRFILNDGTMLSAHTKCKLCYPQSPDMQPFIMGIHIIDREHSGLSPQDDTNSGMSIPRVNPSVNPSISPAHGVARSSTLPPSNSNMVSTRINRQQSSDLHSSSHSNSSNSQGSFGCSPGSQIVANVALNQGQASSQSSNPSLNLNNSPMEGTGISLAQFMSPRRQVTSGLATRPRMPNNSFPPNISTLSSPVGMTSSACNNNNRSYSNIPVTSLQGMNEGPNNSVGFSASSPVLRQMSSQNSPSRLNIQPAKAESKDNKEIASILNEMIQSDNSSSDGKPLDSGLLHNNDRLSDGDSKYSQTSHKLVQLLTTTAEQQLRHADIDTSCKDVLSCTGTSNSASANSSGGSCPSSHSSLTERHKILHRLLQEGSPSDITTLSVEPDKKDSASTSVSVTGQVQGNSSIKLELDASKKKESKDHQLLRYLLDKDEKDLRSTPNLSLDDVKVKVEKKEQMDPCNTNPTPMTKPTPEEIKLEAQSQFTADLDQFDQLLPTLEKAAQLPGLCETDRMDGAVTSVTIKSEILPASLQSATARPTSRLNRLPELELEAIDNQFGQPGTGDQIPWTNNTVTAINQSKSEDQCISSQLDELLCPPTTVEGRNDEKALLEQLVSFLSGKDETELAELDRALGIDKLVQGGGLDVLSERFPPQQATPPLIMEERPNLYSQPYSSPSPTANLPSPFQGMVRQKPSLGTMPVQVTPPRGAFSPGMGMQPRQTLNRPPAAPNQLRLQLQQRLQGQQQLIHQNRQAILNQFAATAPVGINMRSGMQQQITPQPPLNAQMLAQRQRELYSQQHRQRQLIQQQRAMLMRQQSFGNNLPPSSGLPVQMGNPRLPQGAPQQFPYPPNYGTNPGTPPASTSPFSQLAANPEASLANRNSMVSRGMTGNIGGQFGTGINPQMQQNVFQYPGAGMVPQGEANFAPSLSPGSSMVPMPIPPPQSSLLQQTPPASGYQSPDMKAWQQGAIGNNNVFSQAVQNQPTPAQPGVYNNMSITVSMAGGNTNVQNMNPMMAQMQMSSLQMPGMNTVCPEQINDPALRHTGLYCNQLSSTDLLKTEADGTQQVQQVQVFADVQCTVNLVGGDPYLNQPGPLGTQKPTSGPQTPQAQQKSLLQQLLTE

[5] = molecular target: Peroxisome proliferator-activated receptor gamma/Nuclear receptor coactivator 3 (Homo sapiens, UniProt P37231); test: as §1, with “3 (SRC-3)” for “2 (SRC-2)”, “1301 (Confirmation screen.), 1048 (Primary screen.)]” for “1297, 1032 ]”; type: functional
Sequence of Peroxisome proliferator-activated receptor gamma/Nuclear receptor coactivator 3 (P37231 whole entry): as the sequence (P37231 whole entry) above
Sequence of Peroxisome proliferator-activated receptor gamma/Nuclear receptor coactivator 3 (Q9Y6Q9 whole entry, further chain): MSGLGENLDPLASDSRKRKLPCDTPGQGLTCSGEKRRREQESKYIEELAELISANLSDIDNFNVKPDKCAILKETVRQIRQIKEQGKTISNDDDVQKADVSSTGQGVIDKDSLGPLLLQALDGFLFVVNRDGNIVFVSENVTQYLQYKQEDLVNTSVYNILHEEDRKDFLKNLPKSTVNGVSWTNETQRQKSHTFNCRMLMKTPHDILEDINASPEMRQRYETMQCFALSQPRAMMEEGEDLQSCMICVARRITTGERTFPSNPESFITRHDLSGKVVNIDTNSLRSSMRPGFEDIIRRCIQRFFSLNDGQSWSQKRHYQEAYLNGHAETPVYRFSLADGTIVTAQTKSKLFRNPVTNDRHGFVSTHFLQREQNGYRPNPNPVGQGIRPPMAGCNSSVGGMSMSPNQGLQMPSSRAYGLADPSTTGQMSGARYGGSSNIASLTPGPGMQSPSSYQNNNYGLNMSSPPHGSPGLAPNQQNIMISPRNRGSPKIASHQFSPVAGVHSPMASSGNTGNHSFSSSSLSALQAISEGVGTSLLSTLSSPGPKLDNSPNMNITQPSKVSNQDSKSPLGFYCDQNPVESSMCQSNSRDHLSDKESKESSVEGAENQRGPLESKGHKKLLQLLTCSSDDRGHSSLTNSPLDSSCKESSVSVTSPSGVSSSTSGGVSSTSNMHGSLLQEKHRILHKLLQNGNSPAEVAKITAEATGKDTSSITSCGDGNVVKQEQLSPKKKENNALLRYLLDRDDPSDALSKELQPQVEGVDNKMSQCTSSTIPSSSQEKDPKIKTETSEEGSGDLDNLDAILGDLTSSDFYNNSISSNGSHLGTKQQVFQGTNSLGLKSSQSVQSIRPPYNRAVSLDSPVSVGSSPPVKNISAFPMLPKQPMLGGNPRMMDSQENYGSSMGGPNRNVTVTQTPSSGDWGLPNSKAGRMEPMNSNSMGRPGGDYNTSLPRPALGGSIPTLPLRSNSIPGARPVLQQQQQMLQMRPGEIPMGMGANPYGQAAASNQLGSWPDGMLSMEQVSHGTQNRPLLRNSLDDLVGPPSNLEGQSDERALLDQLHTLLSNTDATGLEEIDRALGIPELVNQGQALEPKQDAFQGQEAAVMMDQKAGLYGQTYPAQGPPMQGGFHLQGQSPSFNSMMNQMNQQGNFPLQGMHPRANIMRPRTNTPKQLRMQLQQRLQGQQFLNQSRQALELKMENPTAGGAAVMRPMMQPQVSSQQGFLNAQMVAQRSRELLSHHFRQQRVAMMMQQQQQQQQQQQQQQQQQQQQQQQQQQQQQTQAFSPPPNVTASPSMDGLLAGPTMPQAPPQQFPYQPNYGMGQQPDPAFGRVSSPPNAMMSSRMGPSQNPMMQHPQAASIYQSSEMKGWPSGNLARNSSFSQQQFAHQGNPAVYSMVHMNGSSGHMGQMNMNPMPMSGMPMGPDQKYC

[6] = molecular target: DNA dC->dU-editing enzyme APOBEC-3A (Homo sapiens, UniProt P31941); test: APOBEC3A DNA deaminase inhibitors, dose response, biochemical (AID 504722); type: functional
Sequence of DNA dC->dU-editing enzyme APOBEC-3A (P31941 whole entry): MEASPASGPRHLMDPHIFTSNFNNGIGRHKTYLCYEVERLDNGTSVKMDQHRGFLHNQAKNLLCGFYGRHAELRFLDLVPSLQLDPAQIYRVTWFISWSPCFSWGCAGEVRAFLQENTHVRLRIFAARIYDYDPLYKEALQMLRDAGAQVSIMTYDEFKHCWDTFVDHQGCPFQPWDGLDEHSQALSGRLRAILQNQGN

[7] = molecular target: DNA dC->dU-editing enzyme APOBEC-3G (Homo sapiens, UniProt Q9HC16); test: Dose Response confirmation of small molecule APOBEC3G DNA Deaminase Inhibitors via a fluorescence-based single-stranded DNA deaminase assay. [Related pubchem assays (depositor defined):AID493012, AID493028]; type: functional
Sequence of DNA dC->dU-editing enzyme APOBEC-3G (Q9HC16 whole entry): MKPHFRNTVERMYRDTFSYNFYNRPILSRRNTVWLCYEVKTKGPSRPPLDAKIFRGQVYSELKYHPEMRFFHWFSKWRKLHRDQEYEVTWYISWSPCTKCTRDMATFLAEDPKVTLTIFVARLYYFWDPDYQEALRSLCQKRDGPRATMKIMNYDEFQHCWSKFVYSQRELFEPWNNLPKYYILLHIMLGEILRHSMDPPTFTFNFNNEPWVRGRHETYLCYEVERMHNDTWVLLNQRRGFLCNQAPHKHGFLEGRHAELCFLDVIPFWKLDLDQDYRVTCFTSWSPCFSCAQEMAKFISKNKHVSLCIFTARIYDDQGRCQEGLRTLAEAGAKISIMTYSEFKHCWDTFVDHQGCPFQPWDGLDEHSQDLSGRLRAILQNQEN

[8] = molecular target: T2, Polyadenylate-binding protein 1 (Homo sapiens, UniProt P11940); test: PABP1 MLLE–PAM2 interaction inhibitors, dose response, miRNA deadenylation inhibitor project, biochemical, fluorescence polarization, Cy5-PAM2 peptide, secondary (AID 602260); type: functional; conditions: read-out: IC50_Mean
[9] = molecular target: T2, Polyadenylate-binding protein 1; test: PABP1 MLLE–PAM2 binding inhibitor potency, dose response, biochemical, fluorescence polarization, FITC-PAM2 peptide (AID 602259); type: functional; conditions: read-out: IC50_Mean
[10] = molecular target: T3, Adenosylmethionine-8-amino-7-oxononanoate aminotransferase (Mycobacterium tuberculosis, UniProt P9WQ81); test: Mycobacterium tuberculosis BioA enzyme inhibitor Measured in Biochemical System Using Plate Reader - 2163-02_Inhibitor_Dose_CherryPick_Activity.; type: functional, Mycobacterium tuberculosis UT205
T3 sequence (P9WQ81 whole entry): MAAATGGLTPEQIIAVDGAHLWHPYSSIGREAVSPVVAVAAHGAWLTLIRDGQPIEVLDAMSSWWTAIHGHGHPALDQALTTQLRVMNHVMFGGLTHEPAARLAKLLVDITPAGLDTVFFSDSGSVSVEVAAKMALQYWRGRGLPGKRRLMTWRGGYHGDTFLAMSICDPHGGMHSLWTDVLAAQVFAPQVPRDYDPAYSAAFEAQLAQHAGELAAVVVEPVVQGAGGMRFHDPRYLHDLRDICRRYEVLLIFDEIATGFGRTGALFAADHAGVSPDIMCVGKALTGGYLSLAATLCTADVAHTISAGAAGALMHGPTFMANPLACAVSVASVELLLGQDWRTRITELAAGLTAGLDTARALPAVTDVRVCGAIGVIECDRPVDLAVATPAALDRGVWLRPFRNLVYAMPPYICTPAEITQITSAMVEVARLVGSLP

[11] = molecular target: DNA (cytosine-5)-methyltransferase 1 (Homo sapiens, UniProt P26358); test: DNMT1 methyltransferase inhibitors, confirmation, biochemical, fluorescent molecular beacon (AID 602386); type: functional
[12] = molecular target: Major prion protein (Homo sapiens, UniProt P04156); type: functional, cell-based
[13] = cells
[14] = molecular target: T4, Ubiquitin-conjugating enzyme E2 N (Homo sapiens, UniProt P61088); type: functional;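 further: Dose-response confirmation in a TR-FRET assay detecting UBC13-driven polyubiquitin chain formation, inhibition measured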
T4 sequence (P61088 whole entry): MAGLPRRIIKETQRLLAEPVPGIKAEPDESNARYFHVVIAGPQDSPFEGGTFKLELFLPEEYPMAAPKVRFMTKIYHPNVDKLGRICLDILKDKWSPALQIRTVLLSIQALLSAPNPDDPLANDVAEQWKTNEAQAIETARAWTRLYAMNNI

[15] = molecular target: T5, Short transient receptor potential channel 4 (Mus musculus, UniProt Q9QUQ5); test: mouse TRPC4 channel activators, dose response, cell-based, HEK293 TRPC4/mu-opioid, Fluo-4 calcium (AID 434937); type: functional
T5 sequence (Q9QUQ5 whole entry): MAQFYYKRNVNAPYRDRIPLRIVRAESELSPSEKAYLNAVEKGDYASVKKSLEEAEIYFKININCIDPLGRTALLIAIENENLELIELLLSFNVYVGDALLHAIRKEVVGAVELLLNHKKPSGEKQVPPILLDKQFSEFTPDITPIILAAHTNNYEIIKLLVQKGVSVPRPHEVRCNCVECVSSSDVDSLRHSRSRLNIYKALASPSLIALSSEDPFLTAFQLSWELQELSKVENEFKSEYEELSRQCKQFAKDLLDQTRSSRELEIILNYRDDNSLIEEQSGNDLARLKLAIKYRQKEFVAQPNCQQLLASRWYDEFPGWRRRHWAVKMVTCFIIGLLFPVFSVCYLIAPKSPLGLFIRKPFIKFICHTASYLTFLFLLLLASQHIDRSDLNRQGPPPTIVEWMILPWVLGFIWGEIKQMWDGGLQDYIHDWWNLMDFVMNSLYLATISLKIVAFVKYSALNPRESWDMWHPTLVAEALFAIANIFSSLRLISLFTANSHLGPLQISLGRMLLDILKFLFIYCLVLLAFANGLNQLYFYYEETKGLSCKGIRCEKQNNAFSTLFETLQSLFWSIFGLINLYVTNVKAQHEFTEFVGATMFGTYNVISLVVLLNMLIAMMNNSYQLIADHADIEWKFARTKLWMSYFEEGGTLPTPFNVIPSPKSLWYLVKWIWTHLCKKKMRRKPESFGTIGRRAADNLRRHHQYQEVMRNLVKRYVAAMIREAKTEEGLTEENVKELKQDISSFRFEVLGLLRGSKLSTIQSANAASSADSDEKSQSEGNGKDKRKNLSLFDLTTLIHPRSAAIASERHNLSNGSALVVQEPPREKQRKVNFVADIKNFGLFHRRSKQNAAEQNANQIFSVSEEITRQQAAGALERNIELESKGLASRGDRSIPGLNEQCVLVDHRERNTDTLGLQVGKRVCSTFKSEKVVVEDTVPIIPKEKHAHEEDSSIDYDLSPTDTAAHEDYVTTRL

[16] = molecular target: SWI/SNF-related matrix-associated actin-dependent regulator of chromatin subfamily A member 2 (Homo sapiens, UniProt P51531); test: Luminescence-based cell-based high throughput dose response assay to identify activators of the function of SWI/SNF related, matrix associated, actin dependent regulator of chromatin, subfamily a, member 2 (SMARCA2, BRM).; type: functional
[17] = Fluorescence-based cell-based high throughput dose response assay for inhibitors of the interaction of nucleotide-binding oligomerization domain containing 2 (NOD2) and the receptor-interacting serine-threonine kinase 2 (RIPK2).; type: functional; conditions: Homo sapiens
[18] = inhibitors of firefly luciferase expression or activity, dose response, H4 neuroglioma cells, luminescence (AID 1990); type: functional, cell-based
[19] = Shn3 3'UTR reporter inhibitors, dose response, cell-based, Clone20 osteoblasts, firefly luciferase, cherry-picked (AID 624132); type: functional;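 further: firefly luciferase luminescence from reporter carrying the Shn3 3'UTR in osteoblasts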
[20] = inhibitors of SNCA 5'UTR-driven reporter translation, confirmation, H4 neuroglioma cells, luminescence (AID 1988); type: functional, cell-based
[21] = Counterscreen for activators of the function of SWI/SNF related, matrix associated, actin dependent regulator of chromatin, subfamily a, member 2 (SMARCA2, BRM): Luminescence-based cell-based high throughput dose response assay to identify non-selective compounds using the VP16 reporter assay.; type: functional
[22] = control 3'UTR Renilla luciferase suppression, dose response, counter-screen for Shn3 inhibitor project, cell-based, Clone20-Shn3RL, cherry-picked (AID 624133); type: functional
[23] = HepG2 cell cytotoxicity, dose response, cytotoxicity control for Shn3 inhibitor project, CellTiter-Glo, cherry-picked (AID 624134); type: functional, cell-based
[24] = molecular target: T6, DNA repair protein RAD52 homolog (Homo sapiens, UniProt P43351); type: functional, biochemical
T6 sequence (P43351 whole entry): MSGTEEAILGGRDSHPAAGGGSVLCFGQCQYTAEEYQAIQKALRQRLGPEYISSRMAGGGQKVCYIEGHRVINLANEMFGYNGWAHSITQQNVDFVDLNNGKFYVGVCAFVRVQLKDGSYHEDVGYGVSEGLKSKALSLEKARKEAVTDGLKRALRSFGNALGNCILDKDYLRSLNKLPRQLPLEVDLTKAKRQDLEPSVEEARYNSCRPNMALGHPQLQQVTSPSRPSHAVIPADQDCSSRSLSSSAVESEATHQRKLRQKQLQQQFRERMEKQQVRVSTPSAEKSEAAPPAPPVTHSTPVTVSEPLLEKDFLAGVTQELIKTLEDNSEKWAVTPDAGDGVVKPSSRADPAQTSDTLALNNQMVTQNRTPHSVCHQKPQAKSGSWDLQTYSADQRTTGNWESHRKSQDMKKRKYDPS

[25] = Luminescence Cell-Based Dose Response HTS to Identify Inhibitors of 5'UTR Stem-Loop Driven Prion Protein mRNA Translation in H4 Neuroglioblastoma Cells. [Related pubchem assays: 1827 (Project Summary), 1813 (Primary HTS)]; type: functional
[26] = molecular target: T7, Carboxy-terminal domain RNA polymerase II polypeptide A small phosphatase 1 (Homo sapiens, UniProt Q9GZU7); test: inhibitors of CTDSP1, concentration-response testing, biochemical assay, absorbance-based, actives from ultra-high-throughput screening (AID 540297); type: functional
T7 sequence (Q9GZU7 whole entry): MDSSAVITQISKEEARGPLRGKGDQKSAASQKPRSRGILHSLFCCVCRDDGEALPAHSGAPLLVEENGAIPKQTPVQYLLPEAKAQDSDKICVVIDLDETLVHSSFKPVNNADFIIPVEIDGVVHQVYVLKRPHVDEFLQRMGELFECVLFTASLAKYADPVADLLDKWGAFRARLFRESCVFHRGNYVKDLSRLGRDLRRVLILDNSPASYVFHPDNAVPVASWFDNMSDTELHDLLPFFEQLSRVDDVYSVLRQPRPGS

## CCOc1ccc(C(C)C)cc1S(=O)(=O)Nc1cccnc1
[1]
  IC50: 3.52 µM (active)
[2]
  IC50: > 100 µM (not active)

## Fc1ccc(COc2cccc(-c3nnc(S)o3)c2)cc1
[3]
  EC50: 8.05 µM (active)
[4]
  EC50: 9.44 µM (active)
[5]
  EC50: > 79.4 µM (not active)

## O=S(=O)(c1ccc(=S)[nH]c1)N1CCOCC1
[6]
  IC50: > 100 µM (inactive)
[7]
  IC50: 12.6 µM (active)
[8]
  IC50: > 66 µM (inactive)
[9]
  IC50: > 66 µM (inactive)

## O=C(Nc1ccc(NS(=O)(=O)c2ccccc2)cc1)c1cccnc1
[10]
  AC50: 5.75 µM (active)

## CCOC(=O)C1CCCN(C(=O)c2cc(-c3ccco3)nc3ccccc23)C1 (stereo not given)
[11]
  IC50: 6.42 µM (active)

## O=C(Cc1cccs1)NCCSc1c(-c2ccc(Cl)cc2)[nH]c2ccccc12
[3]
  EC50: 15.6 µM (not active)
[4]
  EC50: 12.3 µM (inactive)
[5]
  EC50: > 2.94 µM (active)

## O=C1CCCc2c1cc(C(=O)NCCCN1CCOCC1)c(=O)n2-c1ccc(Cl)cc1
[10]
  AC50: 10.1 µM (active)

## Sc1[nH]cnc2c3ccccc3nc1-2
[12]
  IC50: 1.5 µM (active)
[6]
  IC50: > 100 µM (inactive)
[13]
  IC50: > 138 µM (inactive)
[14]
  IC50: > 20 µM (inactive)
[7]
  IC50: 3.65 µM (active)

## CC(C)c1ccc(NC(=S)N(C)CCc2ccccn2)cc1
[15]
  EC50: 5.96 µM (active)

## COc1ccc(OC)c2sc(N(CCN(C)C)C(=O)/C=C/c3cccs3)nc12
[16]
  EC50: > 91.1 µM (inactive)
[17]
  IC50: 13.3 µM (inactive)
[18]
  EC50: 8.13 µM (active)
[19]
  AC50: 12.8 µM (active)
[20]
  EC50: 6.88 µM (active)
[21]
  EC50: > 91.1 µM (inactive)
[22]
  AC50: 25.8 µM (active)
[23]
  AC50: 19.1 µM (active)
[24]
  AC50: 10.6 µM (active)
[25]
  EC50: 3.18 µM (active)

## Fc1ccc(C(c2nnnn2Cc2cccs2)N2CCN(C3CCCCC3)CC2)cc1 (stereo not given)
[15]
  EC50: 1.19 µM (active)

## CCOC(=O)C1CCN(C(=O)Nc2ccc3snnc3c2)CC1
[10]
  AC50: 0.85 µM (active)

## CCCCN(CC)CCNC(=O)c1cc2c(C)nc3ccccc3c2o1
[15]
  EC50: 0.944 µM (active)

## c1cncc(-c2nnn[nH]2)c1
[1]
  IC50: > 100 µM (inactive)
[2]
  IC50: > 100 µM (not active)

## COC(=O)c1sccc1-c1ccc(/C=N/OC(=O)c2ccccc2)o1
[3]
  EC50: 12.7 µM (not active)
[4]
  EC50: 12.2 µM (inactive)
[5]
  EC50: > 79.4 µM (not active)

## COc1ccc(/C(C)=N/NC(=O)CNC(=O)/C=C\c2ccco2)cc1
[26]
  IC50: 6.67 µM (active)

— ChEMBL document CHEMBL1201862, “PubChem BioAssay data set” (2004)
